Measurements as given in the kinase profiling compilation of Christmann-Franck et al. (2016).

Experiments:
Assay in all cases: radiometric filter-binding kinase assay, Kinase HotSpot
Conditions in all cases: compound 0.5 µM; ATP 10 µM
ABL2 (human) = ABL2 (human) (UniProt P42684)
ACVRL1 (human) = ACVRL1 (human) (UniProt P37023)
CAMK1D (human) = CAMK1D (human) (UniProt Q8IU85)
CAMK4 (human) = CAMK4 (human) (UniProt Q16566)
CDK1 CCNB1 (human) = CDK1 CCNB1 (human) (UniProt P06493+P14635)
CDK9 CCNT1 (human) = CDK9 CCNT1 (human) (UniProt P50750+O60563)
CHEK1 (human) = CHEK1 (human) (UniProt O14757)
Sequence of CHEK1 (human) (O14757 whole entry, looked up): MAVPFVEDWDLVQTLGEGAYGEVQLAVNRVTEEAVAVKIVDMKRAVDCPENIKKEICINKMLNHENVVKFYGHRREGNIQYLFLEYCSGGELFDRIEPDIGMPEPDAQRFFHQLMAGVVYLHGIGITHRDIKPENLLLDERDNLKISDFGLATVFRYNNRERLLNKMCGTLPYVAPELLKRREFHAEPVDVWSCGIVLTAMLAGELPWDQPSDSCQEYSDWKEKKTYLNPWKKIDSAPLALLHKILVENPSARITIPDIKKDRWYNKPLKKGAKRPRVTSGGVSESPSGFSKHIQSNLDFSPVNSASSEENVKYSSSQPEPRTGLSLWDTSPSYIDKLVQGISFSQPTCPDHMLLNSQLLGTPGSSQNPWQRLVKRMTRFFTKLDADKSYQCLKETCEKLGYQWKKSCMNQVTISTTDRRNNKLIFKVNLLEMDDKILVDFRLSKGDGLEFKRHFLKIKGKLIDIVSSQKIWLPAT

CHEK2 (human) = CHEK2 (human) (UniProt O96017)
CSNK2A2 (human) = CSNK2A2 (human) (UniProt P19784)
DAPK3 (human) = DAPK3 (human) (UniProt O43293)
DYRK1A (human) = DYRK1A (human) (UniProt Q13627)
DYRK1B (human) = DYRK1B (human) (UniProt Q9Y463)
DYRK4 (human) = DYRK4 (human) (UniProt Q9NR20)
Sequence of DYRK4 (human) (Q9NR20 whole entry, looked up): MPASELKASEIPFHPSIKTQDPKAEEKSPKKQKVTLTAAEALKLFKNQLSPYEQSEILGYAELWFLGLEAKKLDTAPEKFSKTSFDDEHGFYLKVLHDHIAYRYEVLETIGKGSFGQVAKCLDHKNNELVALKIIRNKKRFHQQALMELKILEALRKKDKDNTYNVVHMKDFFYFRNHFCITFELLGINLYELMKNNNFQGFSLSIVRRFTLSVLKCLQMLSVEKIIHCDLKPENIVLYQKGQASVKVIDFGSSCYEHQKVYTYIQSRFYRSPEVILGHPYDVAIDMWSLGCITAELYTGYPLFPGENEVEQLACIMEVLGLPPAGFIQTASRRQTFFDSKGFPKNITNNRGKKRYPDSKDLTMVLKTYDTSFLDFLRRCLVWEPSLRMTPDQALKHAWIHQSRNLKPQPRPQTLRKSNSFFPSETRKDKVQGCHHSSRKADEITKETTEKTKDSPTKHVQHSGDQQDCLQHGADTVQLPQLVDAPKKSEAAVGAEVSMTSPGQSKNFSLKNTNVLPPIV

FGR (human) = FGR (human) (UniProt P09769)
FRK (human) = FRK (human) (UniProt P42685)
HCK (human) = HCK (human) (UniProt P08631)
JAK3 JH1 JH2 (human) = JAK3 JH1 JH2 (human) (UniProt P52333)
KDR (human) = KDR (human) (UniProt P35968)
LRRK2 (human) = LRRK2 (human) (UniProt Q5S007)
MAP2K2 (human) = MAP2K2 (human) (UniProt P36507)
MAP3K11 (human) = MAP3K11 (human) (UniProt Q16584)
MAP3K3 (human) = MAP3K3 (human) (UniProt Q99759)
MAP4K2 (human) = MAP4K2 (human) (UniProt Q12851)
Sequence of MAP4K2 (human) (Q12851 whole entry, looked up): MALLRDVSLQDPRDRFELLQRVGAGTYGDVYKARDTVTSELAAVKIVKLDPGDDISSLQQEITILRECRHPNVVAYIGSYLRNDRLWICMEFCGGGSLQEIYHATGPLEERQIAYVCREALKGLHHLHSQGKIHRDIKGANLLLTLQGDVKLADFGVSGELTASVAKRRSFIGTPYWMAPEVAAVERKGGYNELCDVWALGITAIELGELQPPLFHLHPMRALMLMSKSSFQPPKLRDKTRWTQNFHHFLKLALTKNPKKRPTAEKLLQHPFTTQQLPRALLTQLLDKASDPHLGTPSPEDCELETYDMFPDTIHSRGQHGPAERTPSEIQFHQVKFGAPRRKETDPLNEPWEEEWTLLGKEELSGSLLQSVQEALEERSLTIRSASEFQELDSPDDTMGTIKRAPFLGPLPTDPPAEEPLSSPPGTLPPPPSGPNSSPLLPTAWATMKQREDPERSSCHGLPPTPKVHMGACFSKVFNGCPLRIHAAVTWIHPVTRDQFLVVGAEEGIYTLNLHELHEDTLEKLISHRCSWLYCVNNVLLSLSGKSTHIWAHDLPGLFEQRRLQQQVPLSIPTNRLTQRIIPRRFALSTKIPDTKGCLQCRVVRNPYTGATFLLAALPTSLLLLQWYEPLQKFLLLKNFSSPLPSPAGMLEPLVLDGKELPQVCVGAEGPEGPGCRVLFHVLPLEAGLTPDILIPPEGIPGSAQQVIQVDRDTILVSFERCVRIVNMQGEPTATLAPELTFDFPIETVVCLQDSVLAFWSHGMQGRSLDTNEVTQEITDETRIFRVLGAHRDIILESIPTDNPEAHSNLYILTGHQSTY

MARK1 (human) = MARK1 (human) (UniProt Q9P0L2)
MARK2 (human) = MARK2 (human) (UniProt Q7KZI7)
Sequence of MARK2 (human) (Q7KZI7 whole entry, looked up): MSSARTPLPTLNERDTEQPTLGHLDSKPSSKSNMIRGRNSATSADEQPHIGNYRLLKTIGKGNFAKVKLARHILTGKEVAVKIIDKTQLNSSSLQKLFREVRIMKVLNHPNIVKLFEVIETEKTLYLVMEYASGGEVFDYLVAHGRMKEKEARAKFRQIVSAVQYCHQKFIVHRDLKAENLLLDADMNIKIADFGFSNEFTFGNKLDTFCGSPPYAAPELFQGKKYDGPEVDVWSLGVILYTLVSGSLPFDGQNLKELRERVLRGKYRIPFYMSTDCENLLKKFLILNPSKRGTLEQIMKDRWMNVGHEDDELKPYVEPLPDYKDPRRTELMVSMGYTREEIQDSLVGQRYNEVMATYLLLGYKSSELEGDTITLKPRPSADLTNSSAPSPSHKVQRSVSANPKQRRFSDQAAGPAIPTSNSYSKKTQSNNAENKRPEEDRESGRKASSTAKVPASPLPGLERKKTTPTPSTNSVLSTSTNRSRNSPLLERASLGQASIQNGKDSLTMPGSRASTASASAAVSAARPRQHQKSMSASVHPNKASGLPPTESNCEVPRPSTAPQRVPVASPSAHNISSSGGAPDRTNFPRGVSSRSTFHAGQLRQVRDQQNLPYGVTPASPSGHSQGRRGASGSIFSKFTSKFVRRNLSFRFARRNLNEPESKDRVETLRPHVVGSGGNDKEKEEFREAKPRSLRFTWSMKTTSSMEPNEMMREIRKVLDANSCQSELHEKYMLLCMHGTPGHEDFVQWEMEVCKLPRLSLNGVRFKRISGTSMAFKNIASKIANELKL

MINK1 (human) = MINK1 (human) (UniProt Q8N4C8)
NUAK1 (human) = NUAK1 (human) (UniProt O60285)
OXSR1 (human) = OXSR1 (human) (UniProt O95747)
PAK3 (human) = PAK3 (human) (UniProt O75914)
Sequence of PAK3 (human) (O75914 whole entry, looked up): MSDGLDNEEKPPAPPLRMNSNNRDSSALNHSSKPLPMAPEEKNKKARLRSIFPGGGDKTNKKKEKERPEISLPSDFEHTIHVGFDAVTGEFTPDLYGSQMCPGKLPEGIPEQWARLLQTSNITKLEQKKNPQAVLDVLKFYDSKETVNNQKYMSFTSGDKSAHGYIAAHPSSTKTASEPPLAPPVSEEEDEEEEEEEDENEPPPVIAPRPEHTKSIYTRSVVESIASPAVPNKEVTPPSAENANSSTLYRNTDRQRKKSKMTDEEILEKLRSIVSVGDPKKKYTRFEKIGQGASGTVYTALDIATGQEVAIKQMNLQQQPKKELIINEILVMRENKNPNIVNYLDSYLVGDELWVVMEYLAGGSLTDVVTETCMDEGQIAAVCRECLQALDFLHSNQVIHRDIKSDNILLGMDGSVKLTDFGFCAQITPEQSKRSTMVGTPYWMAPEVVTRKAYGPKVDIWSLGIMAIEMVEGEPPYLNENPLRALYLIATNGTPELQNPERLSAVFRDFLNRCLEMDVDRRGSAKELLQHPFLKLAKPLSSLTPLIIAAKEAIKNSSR

PAK4 (human) = PAK4 (human) (UniProt O96013)
PDGFRB (human) = PDGFRB (human) (UniProt P09619)
PDPK1 (human) = PDPK1 (human) (UniProt O15530)
PHKG2 (human) = PHKG2 (human) (UniProt P15735)
PKN2 (human) = PKN2 (human) (UniProt Q16513)
Sequence of PKN2 (human) (Q16513 whole entry, looked up): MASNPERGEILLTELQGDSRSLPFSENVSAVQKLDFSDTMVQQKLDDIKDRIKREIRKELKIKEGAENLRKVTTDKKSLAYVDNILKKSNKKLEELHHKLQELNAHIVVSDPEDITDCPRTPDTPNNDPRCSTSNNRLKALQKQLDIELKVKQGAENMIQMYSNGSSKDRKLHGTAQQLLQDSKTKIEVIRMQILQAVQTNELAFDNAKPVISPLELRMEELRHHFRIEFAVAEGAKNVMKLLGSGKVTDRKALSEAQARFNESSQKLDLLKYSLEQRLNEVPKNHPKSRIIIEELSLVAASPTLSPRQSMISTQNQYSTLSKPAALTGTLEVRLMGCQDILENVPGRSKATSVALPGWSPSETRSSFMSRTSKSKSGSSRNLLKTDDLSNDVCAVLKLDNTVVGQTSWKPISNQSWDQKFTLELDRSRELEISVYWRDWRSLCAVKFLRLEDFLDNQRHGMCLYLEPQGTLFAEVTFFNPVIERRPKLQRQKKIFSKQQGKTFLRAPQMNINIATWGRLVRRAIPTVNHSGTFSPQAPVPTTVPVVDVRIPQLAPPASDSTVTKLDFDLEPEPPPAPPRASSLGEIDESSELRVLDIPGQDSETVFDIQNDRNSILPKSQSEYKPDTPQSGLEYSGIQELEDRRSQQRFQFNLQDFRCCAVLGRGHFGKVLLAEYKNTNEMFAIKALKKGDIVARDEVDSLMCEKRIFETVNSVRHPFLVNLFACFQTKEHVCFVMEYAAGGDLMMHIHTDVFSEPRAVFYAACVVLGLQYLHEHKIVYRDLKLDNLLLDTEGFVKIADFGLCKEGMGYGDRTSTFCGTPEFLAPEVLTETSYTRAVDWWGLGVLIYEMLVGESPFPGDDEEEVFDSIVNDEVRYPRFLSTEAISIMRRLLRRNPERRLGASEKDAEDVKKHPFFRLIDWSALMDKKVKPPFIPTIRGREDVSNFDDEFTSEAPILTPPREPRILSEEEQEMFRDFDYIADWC

PRKCA (human) = PRKCA (human) (UniProt P17252)
PRKCI (human) = PRKCI (human) (UniProt P41743)
PRKCZ (human) = PRKCZ (human) (UniProt Q05513)
PTK6 (human) = PTK6 (human) (UniProt Q13882)
Sequence of PTK6 (human) (Q13882 whole entry, looked up): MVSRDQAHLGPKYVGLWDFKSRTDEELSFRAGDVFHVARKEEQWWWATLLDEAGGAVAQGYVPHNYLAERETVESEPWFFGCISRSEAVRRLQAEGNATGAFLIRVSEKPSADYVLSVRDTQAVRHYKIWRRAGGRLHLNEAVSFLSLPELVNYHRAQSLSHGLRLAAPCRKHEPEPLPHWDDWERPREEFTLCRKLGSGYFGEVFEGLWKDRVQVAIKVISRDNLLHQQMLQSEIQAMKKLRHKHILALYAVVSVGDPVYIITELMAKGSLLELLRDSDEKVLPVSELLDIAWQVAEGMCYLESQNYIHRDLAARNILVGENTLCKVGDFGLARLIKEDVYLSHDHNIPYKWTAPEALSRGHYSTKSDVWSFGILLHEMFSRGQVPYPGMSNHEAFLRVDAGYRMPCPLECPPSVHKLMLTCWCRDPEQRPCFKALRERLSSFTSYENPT

STK11 (human) = STK11 (human) (UniProt Q15831)
Sequence of STK11 (human) (Q15831 whole entry, looked up): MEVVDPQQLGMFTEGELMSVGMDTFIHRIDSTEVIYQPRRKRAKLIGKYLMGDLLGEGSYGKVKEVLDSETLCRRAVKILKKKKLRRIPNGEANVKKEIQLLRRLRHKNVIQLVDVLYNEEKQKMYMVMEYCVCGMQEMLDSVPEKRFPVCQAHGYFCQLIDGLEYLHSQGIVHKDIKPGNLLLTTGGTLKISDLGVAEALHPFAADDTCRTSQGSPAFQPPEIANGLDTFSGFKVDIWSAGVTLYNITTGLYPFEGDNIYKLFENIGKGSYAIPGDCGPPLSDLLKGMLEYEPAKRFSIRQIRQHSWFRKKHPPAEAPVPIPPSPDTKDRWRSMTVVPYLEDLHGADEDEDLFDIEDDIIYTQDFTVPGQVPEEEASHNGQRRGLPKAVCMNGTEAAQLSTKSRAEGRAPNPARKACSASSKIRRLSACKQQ

TEK (human) = TEK (human) (UniProt Q02763)
TTK (human) = TTK (human) (UniProt P33981)
VRK1 (human) = VRK1 (human) (UniProt Q99986)

`Cc1nc2cc3nc(-c4cccs4)cnc3cc2n1C` showed a residual activity (ABL2 (human)) of 100%, a residual activity (ACVRL1 (human)) of 109% and a residual activity (CAMK1D (human)) of 107%. The residual activity (CAMK4 (human)) was 94.7%, the residual activity (CDK1 CCNB1 (human)) was 96.7% and the residual activity (CDK9 CCNT1 (human)) was 88.3%. It also gave a residual activity (CHEK1 (human)) of 99.8%, a residual activity (CHEK2 (human)) of 94.6% and a residual activity (CSNK2A2 (human)) of 99%. For the same compound, the residual activity (DAPK3 (human)) was 102%, the residual activity (DYRK1A (human)) was 99.9% and the residual activity (DYRK1B (human)) was 102%. For the same compound, the residual activity (DYRK4 (human)) was 104%, the residual activity (FGR (human)) was 89.3% and the residual activity (FRK (human)) was 98.9%. For the same compound, the residual activity (HCK (human)) was 98%, the residual activity (JAK3 JH1 JH2 (human)) was 107% and the residual activity (KDR (human)) was 77.4%. It also gave a residual activity (LRRK2 (human)) of 106%, a residual activity (MAP2K2 (human)) of 77.5% and a residual activity (MAP3K11 (human)) of 91.1%. It also gave a residual activity (MAP3K3 (human)) of 117%, a residual activity (MAP4K2 (human)) of 110% and a residual activity (MARK1 (human)) of 102%. It also gave a residual activity (MARK2 (human)) of 81.4%, a residual activity (MINK1 (human)) of 98.9% and a residual activity (NUAK1 (human)) of 95.3%. It also gave a residual activity (OXSR1 (human)) of 99.4%, a residual activity (PAK3 (human)) of 98.8% and a residual activity (PAK4 (human)) of 126%. For the same compound, the residual activity (PDGFRB (human)) was 63.3%, the residual activity (PDPK1 (human)) was 106% and the residual activity (PHKG2 (human)) was 102%. For the same compound, the residual activity (PKN2 (human)) was 71%, the residual activity (PRKCA (human)) was 74.7% and the residual activity (PRKCI (human)) was 99.1%. For the same compound, the residual activity (PRKCZ (human)) was 95.6%, the residual activity (PTK6 (human)) was 88.6% and the residual activity (STK11 (human)) was 89.6%. The residual activity (TEK (human)) was 96.6%, the residual activity (TTK (human)) was 92.6% and the residual activity (VRK1 (human)) was 95.6%.
`O=C(CCCc1ccc(-c2ccccc2F)cc1)Nc1ccc(O)cc1` showed a residual activity (ABL2 (human)) of 95.3%, a residual activity (ACVRL1 (human)) of 101% and a residual activity (CAMK1D (human)) of 122%. For the same compound, the residual activity (CAMK4 (human)) was 99.6%, the residual activity (CDK1 CCNB1 (human)) was 102% and the residual activity (CDK9 CCNT1 (human)) was 103%. The residual activity (CHEK1 (human)) was 98.8%, the residual activity (CHEK2 (human)) was 101% and the residual activity (CSNK2A2 (human)) was 78.7%. It also gave a residual activity (DAPK3 (human)) of 104%, a residual activity (DYRK1A (human)) of 106% and a residual activity (DYRK1B (human)) of 108%. The residual activity (DYRK4 (human)) was 97.4%, the residual activity (FGR (human)) was 96% and the residual activity (FRK (human)) was 91.9%. The residual activity (HCK (human)) was 93.5%, the residual activity (JAK3 JH1 JH2 (human)) was 92.1% and the residual activity (KDR (human)) was 101%. The residual activity (LRRK2 (human)) was 98%, the residual activity (MAP2K2 (human)) was 95.1% and the residual activity (MAP3K11 (human)) was 101%. For the same compound, the residual activity (MAP3K3 (human)) was 108%, the residual activity (MAP4K2 (human)) was 104% and the residual activity (MARK1 (human)) was 96.7%. For the same compound, the residual activity (MARK2 (human)) was 91.5%, the residual activity (MINK1 (human)) was 97.3% and the residual activity (NUAK1 (human)) was 96.4%. It also gave a residual activity (OXSR1 (human)) of 102%, a residual activity (PAK3 (human)) of 104% and a residual activity (PAK4 (human)) of 95.4%. For the same compound, the residual activity (PDGFRB (human)) was 98.2%, the residual activity (PDPK1 (human)) was 112% and the residual activity (PHKG2 (human)) was 102%. For the same compound, the residual activity (PKN2 (human)) was 89.8%, the residual activity (PRKCA (human)) was 100% and the residual activity (PRKCI (human)) was 95.5%. The residual activity (PRKCZ (human)) was 116%, the residual activity (PTK6 (human)) was 102% and the residual activity (STK11 (human)) was 97.4%. For the same compound, the residual activity (TEK (human)) was 101%, the residual activity (TTK (human)) was 89.5% and the residual activity (VRK1 (human)) was 95.5%.
For `O=C(O)/C=C/c1cc(Br)c(Br)c(Br)c1Br`, the residual activity (ABL2 (human)) was 88.7%, the residual activity (ACVRL1 (human)) was 103% and the residual activity (CAMK1D (human)) was 98.1%. It also gave a residual activity (CAMK4 (human)) of 103%, a residual activity (CDK1 CCNB1 (human)) of 62.7% and a residual activity (CDK9 CCNT1 (human)) of 58.9%. For the same compound, the residual activity (CHEK1 (human)) was 135%, the residual activity (CHEK2 (human)) was 77.5% and the residual activity (CSNK2A2 (human)) was 17%. The residual activity (DAPK3 (human)) was 90.2%, the residual activity (DYRK1A (human)) was 74.8% and the residual activity (DYRK1B (human)) was 79.1%. The residual activity (DYRK4 (human)) was 96.4%, the residual activity (FGR (human)) was 98.4% and the residual activity (FRK (human)) was 102%. The residual activity (HCK (human)) was 99.9%, the residual activity (JAK3 JH1 JH2 (human)) was 71.8% and the residual activity (KDR (human)) was 90.1%. For the same compound, the residual activity (LRRK2 (human)) was 87.6%, the residual activity (MAP2K2 (human)) was 103% and the residual activity (MAP3K11 (human)) was 96.3%. The residual activity (MAP3K3 (human)) was 105%, the residual activity (MAP4K2 (human)) was 89.3% and the residual activity (MARK1 (human)) was 93.7%. For the same compound, the residual activity (MARK2 (human)) was 82.1%, the residual activity (MINK1 (human)) was 96% and the residual activity (NUAK1 (human)) was 87.6%. It also gave a residual activity (OXSR1 (human)) of 93.5%, a residual activity (PAK3 (human)) of 100% and a residual activity (PAK4 (human)) of 104%. It also gave a residual activity (PDGFRB (human)) of 96%, a residual activity (PDPK1 (human)) of 96.2% and a residual activity (PHKG2 (human)) of 98.9%. For the same compound, the residual activity (PKN2 (human)) was 95.6%, the residual activity (PRKCA (human)) was 79% and the residual activity (PRKCI (human)) was 97.3%. It also gave a residual activity (PRKCZ (human)) of 89.2%, a residual activity (PTK6 (human)) of 95% and a residual activity (STK11 (human)) of 42.8%. For the same compound, the residual activity (TEK (human)) was 94.4%, the residual activity (TTK (human)) was 98.1% and the residual activity (VRK1 (human)) was 89.8%.
With `O=C1NC(=O)/C(=C\c2ccc3nccnc3c2)S1` the residual activity (ABL2 (human)) was 96.8%, the residual activity (ACVRL1 (human)) was 107% and the residual activity (CAMK1D (human)) was 102%. It also gave a residual activity (CAMK4 (human)) of 106%, a residual activity (CDK1 CCNB1 (human)) of 93.8% and a residual activity (CDK9 CCNT1 (human)) of 87.7%. For the same compound, the residual activity (CHEK1 (human)) was 99.4%, the residual activity (CHEK2 (human)) was 90.3% and the residual activity (CSNK2A2 (human)) was 3.08%. The residual activity (DAPK3 (human)) was 93.3%, the residual activity (DYRK1A (human)) was 21.8% and the residual activity (DYRK1B (human)) was 31.3%. The residual activity (DYRK4 (human)) was 96.5%, the residual activity (FGR (human)) was 96.8% and the residual activity (FRK (human)) was 91.7%. It also gave a residual activity (HCK (human)) of 92.2%, a residual activity (JAK3 JH1 JH2 (human)) of 97.2% and a residual activity (KDR (human)) of 92.6%. The residual activity (LRRK2 (human)) was 96%, the residual activity (MAP2K2 (human)) was 93.5% and the residual activity (MAP3K11 (human)) was 97.5%. It also gave a residual activity (MAP3K3 (human)) of 100%, a residual activity (MAP4K2 (human)) of 86.1% and a residual activity (MARK1 (human)) of 96.2%. For the same compound, the residual activity (MARK2 (human)) was 93%, the residual activity (MINK1 (human)) was 88.3% and the residual activity (NUAK1 (human)) was 92.8%. The residual activity (OXSR1 (human)) was 98.4%, the residual activity (PAK3 (human)) was 97.4% and the residual activity (PAK4 (human)) was 88.5%. The residual activity (PDGFRB (human)) was 99.5%, the residual activity (PDPK1 (human)) was 104% and the residual activity (PHKG2 (human)) was 97.4%. For the same compound, the residual activity (PKN2 (human)) was 107%, the residual activity (PRKCA (human)) was 102% and the residual activity (PRKCI (human)) was 98.6%. For the same compound, the residual activity (PRKCZ (human)) was 103%, the residual activity (PTK6 (human)) was 95.1% and the residual activity (STK11 (human)) was 96.6%. It also gave a residual activity (TEK (human)) of 89.5%, a residual activity (TTK (human)) of 102% and a residual activity (VRK1 (human)) of 94.9%.
